In patent US11110126B2, “Method of expanding NK cell and composition for culturing” (Korea University Research and Business Foundation, priority 2015, dated 2021):

How the values were obtained:
NK cells [1] = experiment: ROS generation in in vitro-expanded NK cells (DCF-DA flow cytometry); type: cell-based, human; details: 100 μM DCF-DA; for order of ROS generation among treated groups: rank order of groups, lowest ROS first
Description: To measure ROS generated in in vitro-expanded NK cells, NK cells cultured by treatment with an inhibitor individually or in combination were harvested. 1×10^6 cells were seeded per well in a 24-well plate, cultured in a 5% CO2 incubator for 30 minutes, and then collected. The cells were washed once with 1 ml of PBS, followed by flow cytometry using 100 μM DCF-DA. The experiment was performed on a control group which was not treated, and experimental groups treated with apocynin, trolox, pifithrin-α and trolox+pifithrin-α, respectively, and the results are shown in FIG. 9.

NK cells [2] = experiment: Influence of ROS and/or p53 inhibitor on ex-vivo culture (expansion) of NK cells, cell number by hemocytometer; type: cell-based, human; details: PBMC-derived NK cells cultured 10 days, then inhibitor at three-day intervals, counted after culture for 2 weeks; apocynin 400 μM, trolox 50 μM, pifithrin-α 1 μM, combination 50 μM trolox + 500 nM pifithrin-α
Description: Human blood was prepared, and subjected to centrifugation at 2500 rpm for 30 minutes using Ficoll (Ficoll-Paque™ PLUS, GE Healthcare). Then, peripheral blood mononuclear cells were isolated from a buffy coat. Afterward, a Jurkat cell line irradiated at 100 Gy and an EBV-LCL cell line were co-cultured with PBMCs:KL-1:EBV-LCL in a ratio of 1:0.5:0.5 in hRPMI medium prepared by adding 10% FBS and 1% penicillin/streptomycin to RPMI1640 medium in the presence of 500 U/ml IL-2, and the medium was exchanged with hRPMI medium supplemented with 500 U/ml IL-2 once for 2 to 3 days. To examine the influence of an ROS inhibitor on NK cells, the NK cells were cultured for 10 days under the conditions of Preparation Example 1. Then, 400 μM of an apocynin (Calbiochem), 50 μM of trolox (Santa Cruz) and 1 μM of pifithrin-α (Santa Cruz) were treated individually, and 50 μM trolox and 500 nM pifithrin-α were treated in a combination. The inhibitor was treated at three-day intervals, and a cell number was assessed after culture for 2 weeks. Here, the medium was exchanged with hRPMI medium added with 500 U/ml of IL-2 once for three days, and a cell number was calculated using a hemocytometer.

Row | Structure (SMILES) | order of ROS generation among treated groups (NK cells [1]) | NK cell number compared with the control group (NK cells [2]) | ROS generation compared with the control group (NK cells [1]; NK cells cultured with inhibitor)
1 | COc1cc(C(C)=O)ccc1O [apocynin, 1-(4-hydroxy-3-methoxyphenyl)-ethanone] | trolox<pifithrin-α<trolox+pifithrin-α<apocynin<control group | statistically significant increase | 
2 | Br.Cc1ccc(C(=O)Cn2c3c(sc2=N)CCCC3)cc1 [pifithrin-α, 2-(2-imino-4,5,6,7-tetrahydrobenzothiazol-3-yl)-1-p-tolylethanone hydrobromide] | trolox<pifithrin-α<trolox+pifithrin-α<apocynin<control group | statistically significant increase | 
3 | Cc1c(C)c2c(c(C)c1O)CCC(C)(C(=O)O)O2 (stereo not shown) [trolox, 6-hydroxy-2,5,7,8-tetramethylchroman-2-carboxylic acid] | trolox<pifithrin-α<trolox+pifithrin-α<apocynin<control group | statistically significant increase | significantly decreased
